Source: US8748598B2, “Analogs of 3-O-acetyl-11-keto-beta-boswellic acid” (Laila Nutraceuticals, priority 2004, dated 2014)
Converted amounts (≈) assume the structure as drawn. “And” between values parts separate entries of the source, which are not always exact repeats. Equal entries are not always repeated. “Also recorded” adds a separate entry of the source. Each block holds one compound with its values, some of them ahead of it.

What was measured:
[1] = test system: AKT pathway; assay: AKT pathway western immunoblot in MDA-MB-231 cells; format: cell-based, human; conditions: MDA-MB-231, 10 μg/ml, 0-240 min
Procedure: Equal number of MDA-MB-231 human breast tumor cells (ER-) was plated in 25 cm^2 cell culture flasks. The cells treated with either 0.5% DMSO as vehicle or 10 μg/ml of LI-51255 for 0, 5, 10, 20, 30, 60, 120 and 240 min. The cells were lysed in cell lysis buffer.

[2] = test system: MCF-7; assay: MTT cell proliferation assay, MCF-7; format: cell-based, human; conditions: Table 4
Outline: (§1)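 Cells exposed three days to compounds at concentrations up to 10 μg/ml (≤0.5% DMSO), then 0.5 mg/ml MTT for 4 h at 37 °C. Solubilized formazan read at 540 nm; IC50 calculated from quadruplicate wells.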

[3] = test system: B16 F0 melanoma xenograft; assay: B16 F0 melanoma xenograft model; format: in vivo, C57B6J mice; conditions: twelve days; for % reduction of tumor burden (w.r.t control): listed as LI-51255
Procedure: In vivo efficacy of LI-51255 against melanoma growth was evaluated in B16 F0 melanoma xenograft model of C57B6J mice. C57B6J mice of 6 weeks age (body weight 18-22 g) were purchased from National Institute of Nutrition (NIN), Hyderabad (India). Animals study protocols were approved by Institutional Ethics Committee (IAEC). All the studies were performed in compliance with the Committee for the Purpose of Control and Supervision of Experiments on Animals (CPCSEA) guidelines and OECD guidelines. Animals were allowed free access to standard feed and provided charcoal filtered and UV exposed water ad libitum. The animals were maintained at a controlled temperature (24-26° C.), humidity (45-70%), and 12 h/12 h of light/dark cycle.
To induce the melanoma tumor formation, sub-confluent B16F0 cells were harvested by brief trypsinization and 1×10^6 cells were injected subcutaneously in 0.2 mL phosphate-buffered saline. Drug treatment was started after development of palpable tumors (3-5 days after implantation of the cells). Drugs were prepared in phosphate-buffered saline (10% DMSO, v/v) and either 75 mg/kg of DTIC or different doses of LI-51255 (10 or 20 mg/kg) was administered daily through intra-peritoneal route. Vehicle treated control animals received only 10% DMSO in phosphate buffered saline. After twelve days of treatment, the animals were sacrificed by CO2 inhalation and tumors were excised and weighed.

[4] = test system: VEGF; conditions: HUVEC, 24 h, immunoblot; listed as LI51255
Procedure: Equal number of HUVEC human primary endothelial cells was plated in 35 mm culture dishes. The cells exposed to either 0.5% DMSO as vehicle or LI-51255 for 24 h. The cells were lysed in cell lysis buffer. The protein concentration of each lysate was determined by the BCA method (BioRad, Hercules, Calif.). Equal amount of cell lysates proteins was resolved in SDS-PAGE and the transferred proteins on nitrocellulose membrane were reacted with human anti-VEGF antibody (Cell Signaling Technology, Beverly, Mass.) overnight at 4° C. Immunoreactive proteins were detected using were developed with Super SignalWest Pico Chemiluminescent substrate (Pierce Biotechnology Inc.) and the band intensities were analyzed using Molecular Imaging Software, version 4.0 (Eastman Kodak Company, Rochester, N.Y.). Relative density was determined by normalization of the density of each blot with that of corresponding β-actin.

[5] = test system: MDA-MB-231; assay: MTT cell proliferation assay, MDA-MB-231; format: cell-based, human; conditions: Table 4
Outline: as §1

[6] = test system: B16 murine melanoma cells; assay: Cell cycle analysis by flow cytometry; format: cell-based; conditions: 24 h
Procedure: For flow cytometry, cells were harvested after the treatment period, washed with phosphate buffered saline (PBS), and adjusted the cell count at 2×10^6 cells per milliliter. The cells were fixed in 70% ethanol for 30 min at 4° C. Cells were then washed two times with PBS and stained with 0.5 μg/ml propidium iodide at 37° C. for 30 min and analyzed by flow cytometry. Data were acquired on a FACS Scan flow cytometer (Becton Dickinson) and analyzed by using the Cellquest software.

[7] = test system: Human umbilical vein endothelial cells (HUVEC); assay: In vitro capillary-like tube formation assay; format: cell-based; conditions: HUVEC on Cultrex, 1, 2.5 and 5 μg/ml, 16 h
Procedure: In vitro capillary formation assay was performed with Human umbilical vein endothelial cells (HUVEC), cultured on 10 mg/ml basement membrane extract (BME—Cultrex®, R&D Systems, USA) bed. The protocol of in vitro endothelial tube formation assay was the same as described earlier with some modifications (Reference). Briefly, four hundred microliters of Cultrex was coated at 4° C. in each well of 24-well culture plate and allowed to gel at 37° C. for 1 h. HUVECs were plated at a density of 7.5×10^4 cells per well with 400 μl of DMEM supplemented with 10% fetal bovine serum and 4.5 g/l D-glucose. The cells were then treated with either 0.5% DMSO or different concentrations of LI-51255 for 16 hours. Pictures were taken under a Nikon Eclipse TS 100 microscope equipped with a Nikon Coolpix camera (FIG. 1B).

[8] = test system: MDA-MB-231; assay: MDA-MB-231 clone (colony) formation in vitro; format: cell-based, human; conditions: 1.0, 1.5, 2.0, 2.5 μg/ml, 8 days
Procedure: Inhibitory efficacy in clone formation of LI-51255 was tested by following the procedure described earlier with some modifications (Wu et al. 2005). Briefly, MDA-MB-231 cells were harvested and seeded into 6-well plates (100 cells/ml). The cells were allowed to grow for 4 days and thereafter, the cells were incubated with DMEM containing either 0.5% DMSO or 25 μg/ml AKBA or different concentrations (1.0, 1.5, 2.0, 2.5 μg/ml) of LI-51255 for further 8 days. Fresh medium containing test agents was replaced at every 24 h. Finally, the wells were washed three times with PBS and fixed in methanol for 15 min. The cells were stained with Giemsa stain and observed under microscope. The image of the stained wells were captured digitally (Kodak Image Station 4000MM, Carestream Health Inc., New Haven, Conn.) and number of colonies were counted and analyzed by using NIH Image J software.

[9] = test system: HT-29; assay: In vitro antitumor activity, HT-29; format: cell-based; conditions: Homo sapiens, read-out: Inhibition of cell proliferation (IC50)
Procedure: (§2) MTT [3-(4,5-dimethylthiazol-2-yl)-2,5-diphenyltetrazolium bromide] incorporation based cell proliferation assay was performed as described previously (Reference). The cytotoxic efficacy of some analogs was evaluated in different cell lines by MTT cell proliferation assay kit (Roche Applied Sciences, Germany). The assay was carried out according to the instruction provided by the vendor. Briefly, in brief, equal numbers of cells was plated in 96-well flat-bottomed plates in 100 μl of medium and were exposed to different analogs selected from 1 to 63 at various concentrations up to 10 μg/ml for a period of three days. Vehicle control culture wells received only a maximum of 0.5% DMSO. Thereafter, 0.5 mg/ml of MTT reagent was added to each well and the microplate was incubated further for 4 h at 37° C. in presence of 5% CO2. Finally, the cells were solubilized by adding solubilizing solution and allowed to incubate at 37° C. overnight. After complete solubilization of the formazan crystals the absorbance was read at 540 nm in a microplate reader (BioRad, USA).

[10] = test system: A375; assay: MTT cell proliferation assay, A375; format: cell-based, human; conditions: Homo sapiens, A-375; A375; read-out: Inhibition of cell proliferation (IC50)
Procedure: as §2, with “USA). The results (mean OD±SD) obtained from quadruplicate wells were used in calculation to determine the inhibition of cell proliferation (50% of inhibitory concentration, IC50) of the test compounds.” for “USA).”

[11] = test system: A549; assay: MTT cell proliferation assay, A549; format: cell-based, human; conditions: Homo sapiens, A549; read-out: Inhibition of cell proliferation (IC50)
Procedure: as §2, with “USA). The results (mean OD±SD) obtained from quadruplicate wells were used in calculation to determine the inhibition of cell proliferation (50% of inhibitory concentration, IC50) of the test compounds.” for “USA).”

[12] = test system: A2058; assay: In vitro antitumor activity, A2058; format: cell-based; conditions: Homo sapiens, read-out: Inhibition of cell proliferation (IC50)
Procedure: as §2

[13] = test system: DU145; assay: In vitro antitumor activity, DU145; format: cell-based; conditions: Homo sapiens, DU-145, read-out: Inhibition of cell proliferation (IC50)
Procedure: as §2

[14] = test system: B16; assay: MTT cell proliferation assay, B16; format: cell-based, mouse; conditions: Mus musculus, B16; read-out: Inhibition of cell proliferation (IC50)
Procedure: as §2, with “USA). The results (mean OD±SD) obtained from quadruplicate wells were used in calculation to determine the inhibition of cell proliferation (50% of inhibitory concentration, IC50) of the test compounds.” for “USA).”

[15] = test system: SKBR3; assay: In vitro antitumor activity, SKBR3; format: cell-based; conditions: Homo sapiens, SK-BR-3, read-out: Inhibition of cell proliferation (IC50)
Procedure: as §2

[16] = 10 mg/kg daily intra-peritoneal
[17] = 20 mg/kg daily intra-peritoneal

IC50 values MCF-7 [2]: 12.98 µg/mL (≈ 23.4 µM) | IC50 values MDA-MB-231 [5]: 3.45 µg/mL (≈ 6.22 µM)
Structure (SMILES): CC(=O)OC1CC[C@@]2(C)C(CC[C@]3(C)C2C(=O)C=C2C4[C@@H](C)[C@H](C)CC[C@]4(C)CC[C@]23C)[C@@]1(C)C(=O)NCCN (stereo partly drawn) [Analog 21, N-(3-O-Acetyl-11-keto-[beta]-boswelloyl)-ethylenediamine]
AKT protein expression [1]: remains the same | phospho-raf (ser 259) expression [1]: up-regulation | phosphorylated AKT (ser 473) protein expression ([1]; listed as LI-51255): deactivates AKT pathway; also recorded: time dependent down regulation | Average weight of tumor [3, 16]: 4.575 gm | % reduction of tumor burden (w.r.t control) [3, 16]: 27.25% and 27.253% | Average weight of tumor [3, 17]: 3.050 gm | % reduction of tumor burden (w.r.t control) [3, 17]: 51.5% and 51.502% | VEGF protein expression [4]: strongly inhibited | cell cycle progression [6]: arrests the growth of B16 murine melanoma cells at the subG1 phase | G1 ([6]; LI-51255 5 (mg/ml)): 74.74 | G2/M ([6]; LI-51255 5 (mg/ml)): 12.2 | S ([6]; LI-51255 5 (mg/ml)): 11.18 | Sub G1 ([6]; LI-51255 5 (mg/ml)): 1.7 | G1 ([6]; LI-51255 10 (mg/ml)): 60.25 | G2/M ([6]; LI-51255 10 (mg/ml)): 9.19 | S ([6]; LI-51255 10 (mg/ml)): 10.87 | Sub G1 ([6]; LI-51255 10 (mg/ml)): 19.76 | capillary-like tube formation ([7]; listed as LI-51255): dose-dependent inhibition; also recorded: inhibits capillary-like tube formation | MDA-MB-231 colony formation ([8]; listed as LI-51255): potentially inhibits the growth and development; also recorded: inhibition of MDA-MB-231 colony formation

IC50 [9]: 8.87 µg/mL (≈ 16 µM) | IC50 [10]: 3.53 µg/mL (≈ 6.36 µM) | IC50 [11]: 6.83 µg/mL (≈ 12.3 µM) | IC50 ([2]; Homo sapiens, MCF7): 13 µg/mL (≈ 23.4 µM) | IC50 [12]: 3.59 µg/mL (≈ 6.47 µM) | IC50 [13]: 4.24 µg/mL (≈ 7.64 µM) | IC50 [14]: 4.35 µg/mL (≈ 7.84 µM) | IC50 ([5]; Homo sapiens, MDA-MB-231): 3.45 µg/mL (≈ 6.22 µM) | IC50 [15]: 5.3 µg/mL (≈ 9.55 µM)
Structure (SMILES): CC(=O)O[C@@H]1CC[C@@]2(C)C(CC[C@]3(C)C2C(=O)C=C2C4[C@@H](C)[C@H](C)CC[C@]4(C)CC[C@]23C)[C@@]1(C)C(=O)NCCN (stereo partly shown) [Analog 21]
phosphorylated AKT (ser 473) protein expression [1]: down regulating AKT phosphorylation | cell cycle progression [6]: interrupts cell cycle progression at sub G1 phase | capillary-like tube formation [7]: dose dependent inhibition | MDA-MB-231 colony formation [8]: potent inhibition of clone formation
